The text below walks through data of US20200107546A1, “METHODS AND COMPOSITIONS FOR CONTROLLING UNDESIRED VEGETATION SUCH AS INVASIVE ANNUAL GRASSES” (priority 2018, published 2020).

Data set [1] has as its system Bromus tectorum (cheatgrass). Nature of the data set: Example 2 post-emergence field application, control of Bromus tectorum. It is filed as in vivo. To be noted: Plateau 7 oz/A, Esplanade 200SC 7 oz/A, Raptor 6 oz/A, 0.25% NIS. As to the method: (§1) In the following Examples, desirable perennial grasses were treated to control the invasive annual grass Bromus tectorum (cheatgrass) either pre-emergence or post-emergence with either indaziflam, imazapic, imazamox, glyphosate, or combinations thereof. Imazapic, glyphosate, and combinations comprising either imazapic and/or glyphosate were used for purposes of comparison.
(§2) Table 3 summarizes the herbicidal efficacies (% Control), damage caused to desired perennial grasses (% Injury), and cover (% Cover) when the active ingredients of Table 1 were applied to perennial grasses of species Bromus inermis (smooth brome) and Agropyron smithii (western wheatgrass).
(§3) All treatments include 0.25% NIS.
(§4) Imazapic, indaziflam, imazamox, and a combination of indaziflam and imazamox were applied via a backpack research sprayer to perennial grasses to control Bromus tectorum post-emergence.

Data set [2] deals with perennial grasses Bromus inermis (smooth brome) and Agropyron smithii (western wheatgrass). Nature of the data set: Example 2 post-emergence field application, injury and cover of desirable perennial grasses. It is filed as in vivo. How it is done: as §1, §2, §3, §4
The subject of data set [3] is perennial grasses Hesperostipa comata (needle-and-thread), Aristida purpurea (purple three-awn) and Bouteloua gracilis (blue grama). Nature of the data set: Example 3 pre-emergence field application, injury and biomass of desirable perennial grasses. The class given is in vivo. As to the method:
as §1
(§5) Table 3 summarizes the herbicidal efficacies (% Control) and damage caused to desired perennial grasses (% Injury) during the first year after the active ingredients of Table 1 were applied to perennial grasses of species Hesperostipa comata (needle-and-thread), Aristida purpurea (purple three-awn) and Bouteloua gracilis (blue grama). Table 4 further sets forth the biomass in kilograms per hectare (kg/ha) of Bromus tectorum and perennial grass measured in the first year after treatment.
as §3
(§6) Imazapic, indaziflam, and a combination of indaziflam and imazamox were applied via a backpack research sprayer to desirable perennial grasses to control unwanted Bromus tectorum pre-emergence.

For data set [4], the system named is Bromus tectorum (cheatgrass). Nature of the data set: Example 3 pre-emergence field application, control and biomass of Bromus tectorum. It is filed as in vivo. The note with it: for % Control Bromus tectorum / Biomass (kg/ha) Bromus tectorum: first year after treatment, 0.25% NIS. As to the method:
as §1, §5, §3, §6

Data set [5] in a line: Soil half-life of herbicides. From the text: As used herein, “short-residual” denotes an herbicide having a median soil half-life of no greater than 50 days, such as less than 40 days or less than 30 days.
Imazamox is a short-residual imidazolinone herbicide having a soil half-life of about 20-30 days. Additionally, imazamethabenz methyl is a short-residual imidazolinone herbicide having a soil half-life of about 25-36 days.

[6] abbreviates: Year 1 after treatment, post-emergence, Plateau 7 oz/A, Esplanade 200SC 7 oz/A, Raptor 6 oz/A, 0.25% NIS.
The mark [7] stands for this setting: Year 2 after treatment, post-emergence, Plateau 7 oz/A, Esplanade 200SC 7 oz/A, Raptor 6 oz/A, 0.25% NIS.
Where [8] appears, read: pre-emergence, first year after treatment, Esplanade 200SC 3.5 oz/A, 0.25% NIS.
[9] abbreviates: pre-emergence, first year after treatment, Esplanade 200SC 5 oz/A, 0.25% NIS.
Setting [10] is: pre-emergence, first year after treatment, Plateau 7 oz/A, Esplanade 200SC 7 oz/A, Raptor 6 oz/A, 0.25% NIS.
The mark [11] stands for this setting: Plateau 7 oz/A, Esplanade 200SC 7 oz/A, Raptor 6 oz/A.
Setting [12] is: in vivo, 1 year after treatment.

For `COCc1cnc(C2=NC(C)(C(C)C)C(=O)N2)c(C(=O)O)c1` (racemic) [Imazamox, 2-[(RS)-4-isopropyl-4-methyl-5-oxo-2-imidazolin-2-yl]-5-methoxymethylnicotinic acid], the “% Control Bromus tectorum” value in data set [1] (Year 1 after treatment) is recorded as 98%; in data set [1] (Year 2 after treatment), 20%. Moreover, the “% Injury Perennial grasses” value in data set [2] (setting [6]) and in data set [2] (setting [7]) was 0% throughout. In data set [2] (setting [7]), the “% Cover Perennial grasses” value is listed as 63%.
For the molecule `Cc1ccc2c(c1)[C@H](Nc1nc(N)nc(C(C)F)n1)[C@@H](C)C2` (mixture of isomers) [Indaziflam, N2-[(1R,2S)-2,3-dihydro-2,6-dimethyl-1H-inden-1-yl]-6-[(1RS)-1-fluoroethyl]-1,3,5-triazine-2,4-diamine], the “% Control Bromus tectorum” value is recorded as 37% in data set [1] (Year 1 after treatment); 93% in data set [1] (Year 2 after treatment); 72% in data set [4] (Esplanade 200SC 3.5 oz/A); 82% in data set [4] (Esplanade 200SC 5 oz/A); 80% in data set [4] (setting [11]). For the same molecule, the “% Injury Perennial grasses” value was 0% in data set [2] (setting [6]); 0% in data set [2] (setting [7]); 10% in data set [3] (setting [8]); 0% in data set [3] (setting [9]); 5% in data set [3] (setting [10]). For the same molecule, in data set [2] (setting [7]), the “% Cover Perennial grasses” value was determined as 72%. The figures for the “Biomass (kg/ha) Perennial grasses” value in data set [3] (setting [8]), in data set [3] (setting [9]) and in data set [3] (setting [10]) were 54 kg/ha, 63 kg/ha and 75 kg/ha, respectively. Besides, the Perennial grass biomass in data set [3] (pre-emergence, indaziflam alone, span over the rates 3.5, 5 and 7 oz/A) was 54-75 kg/ha. Besides, the “Biomass (kg/ha) Bromus tectorum” value in data set [4] (Esplanade 200SC 3.5 oz/A) is reported as 83 kg/ha; in data set [4] (Esplanade 200SC 5 oz/A), 18 kg/ha; in data set [4] (setting [11]) it was 32 kg/ha. The “control of invasive Bromus tectorum” value in data set [4] (indaziflam alone, span over the rates 3.5, 5 and 7 oz/A) is 72-82%.
For the molecule `Cc1cnc(C2=NC(=O)C(C)(C(C)C)N2)c(C(=O)O)c1` (stereo not drawn) [Imazapic], the “% Control Bromus tectorum” value in data set [1] (Year 1 after treatment) stood at 97%; in data set [1] (Year 2 after treatment), 77%; in data set [4] (setting [11]), 90%. For the same molecule, the “% Cover Perennial grasses” value in data set [2] (setting [7]) is 72%. Moreover, the “% Injury Perennial grasses” value turned out to be 15% in data set [2] (setting [12]); 1% in data set [2] (in vivo, 2 year after treatment); 10% in data set [3] (setting [12]). The “Biomass (kg/ha) Perennial grasses” value in data set [3] (setting [10]) is reported as 91 kg/ha. The “Biomass (kg/ha) Bromus tectorum” value in data set [4] (setting [11]) is 7 kg/ha. For the same molecule, in data set [5], the Median soil half-life amounted to 120 days.
In data set [5], `CC(C)C1(C)N=C(c2ncccc2C(=O)O)NC1=O` (stereo not drawn) [Imazapyr] showed a Median soil half-life of 83 days.
On the same count and under the same terms, the figure for `CCc1cnc(C2=NC(C)(C(C)C)C(=O)N2)c(C(=O)O)c1` (stereo not drawn) [Imazethapyr] is 75 days.
